# Test results from paper PMC4697445 (Journal of medicinal chemistry, 2015).
# Read-outs that look alike come from different tables or passages of the source.
# What was measured:
# [1] = cited from earlier work
# [2] = tested on: PDE10A; details: cited from earlier work
# [3] = target: PDE10A (Rattus norvegicus, UniProt Q9QYJ6); details: by 30 min p.i.
# [4] = Biodistribution in rats; type: in vivo, male Sprague-Dawley rats; details: rat; for blood uptake / bone uptake / brain uptake / fat uptake / kidney uptake / liver uptake / muscle uptake: iv, mean ± SD, n = 4
# [5] = tested on: PDE10A
# [6] = for % peak 1 (radiometabolite, retention time ~3.5 min) / % peak 2 (radiometabolite, retention time ~7.5 min): NHP plasma
# Sequence of PDE10A (Rattus norvegicus, UniProt Q9QYJ6) (Q9QYJ6 whole entry): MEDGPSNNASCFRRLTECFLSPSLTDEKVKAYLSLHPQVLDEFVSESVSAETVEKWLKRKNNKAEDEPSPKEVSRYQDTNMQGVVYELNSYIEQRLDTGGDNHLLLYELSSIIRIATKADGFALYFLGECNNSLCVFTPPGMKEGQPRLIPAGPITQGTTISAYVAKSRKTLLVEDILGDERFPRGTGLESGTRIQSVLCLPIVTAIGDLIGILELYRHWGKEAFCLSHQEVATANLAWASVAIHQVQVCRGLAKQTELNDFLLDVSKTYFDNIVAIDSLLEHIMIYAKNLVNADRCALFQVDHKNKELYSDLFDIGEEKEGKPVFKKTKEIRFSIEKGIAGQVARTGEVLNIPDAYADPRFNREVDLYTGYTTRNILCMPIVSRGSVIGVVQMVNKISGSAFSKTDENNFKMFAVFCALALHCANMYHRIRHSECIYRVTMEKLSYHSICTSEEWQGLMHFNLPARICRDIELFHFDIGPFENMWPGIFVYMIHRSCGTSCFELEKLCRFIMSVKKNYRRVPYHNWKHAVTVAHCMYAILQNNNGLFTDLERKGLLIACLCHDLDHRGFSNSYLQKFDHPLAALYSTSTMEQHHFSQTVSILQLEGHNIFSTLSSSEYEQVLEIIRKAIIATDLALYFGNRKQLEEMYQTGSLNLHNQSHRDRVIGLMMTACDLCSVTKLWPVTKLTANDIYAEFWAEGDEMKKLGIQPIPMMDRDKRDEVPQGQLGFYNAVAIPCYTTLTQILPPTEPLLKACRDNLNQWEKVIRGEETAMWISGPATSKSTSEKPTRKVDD
smiles,measurement,setting,value
Cn1cc(-c2ccncc2)c(-c2ccc(OCc3ccc4ccccc4n3)cc2)n1 [[^11C]MP-10],brain uptake,[1]; 5 min p.i.,0.162 ± 0.025 %ID/g
same,brain uptake,[1]; 30 min p.i.,0.066 ± 0.008 %ID/g
"Cn1cc(-c2ccncc2)c(-c2ccc(OCc3cc(OCC[18F])c4ccccc4n3)cc2)n1 [[^18F]18d, 4-((2-Fluoro-^18F)ethoxy)-2-((4-(1-methyl-4-(pyridin-4-yl)-1H-pyrazol-3-yl)phenoxy)methyl)quinoline]",ratio of activity in the striatum versus nontarget brain regions,[3],> 2 fold
same,in vivo metabolic defluorination (bone activity),[4]; 5 to 60 min p.i.,appeared more stable to in vivo defluorination
same,blood uptake,[4]; 5 min p.i.,0.362 ± 0.048 %ID/g
same,bone uptake,[4]; 5 min p.i.,0.189 ± 0.004 %ID/g
same,brain uptake,[4]; 5 min p.i.,0.118 ± 0.012 %ID/g
same,fat uptake,[4]; 5 min p.i.,0.213 ± 0.007 %ID/g
same,kidney uptake,[4]; 5 min p.i.,2.200 ± 0.158 %ID/g
same,liver uptake,[4]; 5 min p.i.,6.88 ± 1.15 %ID/g
same,muscle uptake,[4]; 5 min p.i.,0.247 ± 0.031 %ID/g
same,blood uptake,[4]; 30 min p.i.,0.226 ± 0.073 %ID/g
same,bone uptake,[4]; 30 min p.i.,0.091 ± 0.012 %ID/g
same,brain uptake,[4]; 30 min p.i.,0.078 ± 0.009 %ID/g
same,fat uptake,[4]; 30 min p.i.,0.302 ± 0.033 %ID/g
same,kidney uptake,[4]; 30 min p.i.,1.055 ± 0.218 %ID/g
same,liver uptake,[4]; 30 min p.i.,6.98 ± 0.99 %ID/g
same,muscle uptake,[4]; 30 min p.i.,0.134 ± 0.019 %ID/g
same,blood uptake,[4]; 60 min p.i.,0.215 ± 0.008 %ID/g
same,bone uptake,[4]; 60 min p.i.,0.142 ± 0.001 %ID/g
same,brain uptake,[4]; 60 min p.i.,0.101 ± 0.002 %ID/g
same,fat uptake,[4]; 60 min p.i.,0.259 ± 0.025 %ID/g
same,kidney uptake,[4]; 60 min p.i.,0.765 ± 0.153 %ID/g
same,liver uptake,[4]; 60 min p.i.,3.29 ± 0.56 %ID/g
same,muscle uptake,[4]; 60 min p.i.,0.132 ± 0.011 %ID/g
same,ratios of uptake in the striatum vs nontarget brain regions,"[5]; cynomolgus macaque microPET, by 40 min p.i.",> 3 fold
same,visualization of striatum in microPET,"[5]; cynomolgus macaque, summed images 0 to 180 min",clear visualization of the PDE10A-enriched striatum
same,"% peak 1 (radiometabolite, retention time ~3.5 min)",[6]; 2 min p.i.,1%
same,"% peak 2 (radiometabolite, retention time ~7.5 min)",[6]; 2 min p.i.,0%
same,"% peak 1 (radiometabolite, retention time ~3.5 min)",[6]; 15 min p.i.,4%
same,"% peak 2 (radiometabolite, retention time ~7.5 min)",[6]; 15 min p.i.,0%
same,"% peak 1 (radiometabolite, retention time ~3.5 min)",[6]; 30 min p.i.,7%
same,"% peak 2 (radiometabolite, retention time ~7.5 min)",[6]; 30 min p.i.,1%
same,"% peak 1 (radiometabolite, retention time ~3.5 min)",[6]; 60 min p.i.,19%
same,"% peak 2 (radiometabolite, retention time ~7.5 min)",[6]; 60 min p.i.,5%
same,"% peak 1 (radiometabolite, retention time ~3.5 min)",[6]; 90 min p.i.,32%
same,"% peak 2 (radiometabolite, retention time ~7.5 min)",[6]; 90 min p.i.,9%
same,radioactivity of arterial blood found in the plasma,[6]; plasma separated from packed red cells,65–75%
